Key:
human CB2 = target: T1, human CB2 (Homo sapiens, UniProt P34972); assay: CB2 receptor binding, [3H]-WIN-55212-2 displacement in CB2-overexpressing CHO cell membranes
T1 construct: purchased Perkin-Elmer, Boston, Mass; host or cells: CHO cells (membranes)

C57BL6/J mice = assay: TPA-induced edema of abdominal skin, topical administration; type: in vivo, mouse; settings: PEA 450 μg, GW7647 755 μg
Swiss mice [1] = assay: Complete Freund's adjuvant-induced arthritis, hyperalgesia; type: in vivo, mouse; settings: 30 mg-kg^−1 s.c., 60 min before test, day 7 and 14 after CFA
Protocol: (§1) Mechanical hyperalgesia was determined by measuring paw withdrawal thresholds to an increasing pressure onto the dorsal surface of the paw using an analgesimeter (Ugo Basile, Italy) with a cut-off of 250 g. Withdrawal thresholds were measured on both the ipsilateral paw (inflamed or ligated) and contralateral paw (uninflamed or unligated) 60 min after subcutaneous drug administration.
(§2) Thermal hyperalgesia was assessed by the methods of Hargreaves (Hargreaves et al., Pain, 32, 77 (1988)) by measuring the latency to withdraw the hind paws from a focussed beam of radiant heat applied to the plantar surface, using an appropriate apparatus (Ugo Basile, Italy). The cut-off time was set at 30 sec. The mice were habituated to the apparatus for 10-15 min two days prior to the experiment.

mice = assay: Formalin-evoked pain behavior (hind paw licking); type: in vivo, mouse; settings: for early and late phase formalin-evoked nociception, combination with anandamide: 0.1 μg/paw of each; for anti-inflammatory effect (paw weight) after formalin: 50 μg/paw, 45 minutes after intraplantar formalin, C57BL/6J mice
Protocol: Administration of formalin into the mouse hind paw evokes a pain behavior consisting of two temporally distinct phases of licking and flexing of the injected limb (Dubuisson, et al., Pain 4, 161-74 (1977)). The first phase, which starts immediately after formalin injection and lasts 5-10 min, is due to activation of nociceptive fibers and is accompanied by the local release of nitric oxide and adenosine [Dickenson, et al., Neurosci Lett 83, 207-11 (1987); Omote, et al., Brain Res 787, 161-4 (1998); Omote et al., 2000; Liu, et al., J Neurochem 80, 562-70 (2002)]. Following a quiescent interval of 10-15 minutes, a second phase of nociceptive behavior appears, which is associated with local inflammation [Rosland, et al., Pain 42, 235-42 (1990)] and central sensitization [Coderre, et al., J Neurosci 12, 3665-70 (1992)]. […] (2001); Farquuar-Smith, 2002]. […] The effects of PEA in C57BL/6J mice in which the PPARα gene had been deleted by homologous recombination (PPARα^−/−)[Lee, et al., Mol Cell Biol 15, 3012-22 (1995)] were examined to determine whether PPARα contributes to these properties.
Although PPARα is known to regulate the inflammatory response [Devchand, et al., Nature 384, 39-43. (1996); Cabrero, et al., Curr Drug Targets Inflamm Allergy 1, 243-8 (2002); Berger, et al., Annu Rev Med 53, 409-35 (2002); Chinetti, et al., Inflamm Res 49, 497-505 (2000)], its roles in the modulation of acute nociceptive pain remain unexplored. A series of structurally diverse PPAR-α agonists were tested for their ability to reduce pain behavior in an animal model of chemical tissue damage. Injection of formalin into the mouse hind paw evokes a nocifensive behavior consisting of two distinct phases. The first phase results from direct activation of nociceptive fibers and starts immediately after formalin administration, while the second phase develops over a period of approximately 60 min and is associated with local inflammation and central sensitization.
Mice received intraplantar injections of formalin (5% vol/vol, 10 μl) in saline containing polyethylene glycol (5%) and Tween 80 (5%). The duration of paw licking was monitored by an observer for periods of 0-15 min (early or first phase) and 15-45 min (late or second phase) immediately after formalin administration.
Formalin test. Formalin (5%, 10 μl)-induced paw licking was monitored for 0-15 min (first phase) and 15-45 min (second phase) as described (Calignano, et al., Nature 394, 277-81 (1998).

Swiss mice [2] = assay: Sciatic nerve ligation neuropathy, mechanical and thermal hyperalgesia; type: in vivo, mouse; settings: for mechanical and thermal pain thresholds in the non-ligated paw of neuropathic mice: data not shown; for neuropathic hypersensitivity (mechanical and thermal pain thresholds), ligated limb: single s.c. dose day 7 and 14 after surgery, 60 min before test, PEA, GW7647 30 mg-kg^−1, gabapentin 60 mg-kg^−1
Protocol: To examine whether PPARα agonists modulate the persistent pain hypersensitivity associated with nerve injury, peripheral neuropathy was produced in mice by partially ligating the left sciatic nerve, a surgical procedure that results in the development of mechanical and thermal hyperalgesia in the operated limb (Bennett et al., Pain, 33, 87 (1988)).
Sciatic nerve ligation was performed essentially following the method of Bennett and Xie (Bennett et al., Pain 33, 87 (1988)). Briefly, male Swiss mice were anesthetized with sodium pentobarbital, the left sciatic nerve was exposed at mid-thigh level through a small incision and one-third to one-half of the nerve thickness was tightly ligated with a silk thread. The wound was closed with a single muscle suture and skin clips, and dusted with streptomycin powder. In sham-operated animals, the nerve was exposed but not ligated.
as §1, §2

Swiss mice [3] = assay: Prolonged carrageenan-induced paw oedema, hyperalgesia and oedema; type: in vivo, mouse; settings: 30 mg-kg^−1 s.c. on the third day of carrageenan treatment
Text: The ability of PPARα agonists to attenuate hyperalgesia was further explored in two mouse models of subchronic inflammation: (i) experimental arthritis elicited by intradermal injection of complete Freund's adjuvant (CFA) into the base of the tail (Whiteley et al., Current Protocols in Pharmacology, 2, 5.5.1-5.5.5. (2001)); and (ii) prolonged oedema induced by repeated carrageenan injections into the paw (Otterness et al., Methods Enzymol, 162, 320 (1988)). […] Both drugs, but not their vehicle, suppressed mechanical (FIG. 7A, 7B) and thermal (data not shown) sensitivity.
Carrageenan-induced paw oedema. An inflammatory response was initiated in the left hindpaw of male Swiss mice by injecting %-carrageenan (1% weight-vol^−1 in sterile saline, 50 μl) using a 27-gauge needle, and maintained it by repeating the injections on day 3, 7 and 14 after the first administration. Paw oedema was measured using a mouse plethysmometer (Ugo Basile, Italy) or by weighing the excised paw.
as §1

T1 sequence (P34972 whole entry): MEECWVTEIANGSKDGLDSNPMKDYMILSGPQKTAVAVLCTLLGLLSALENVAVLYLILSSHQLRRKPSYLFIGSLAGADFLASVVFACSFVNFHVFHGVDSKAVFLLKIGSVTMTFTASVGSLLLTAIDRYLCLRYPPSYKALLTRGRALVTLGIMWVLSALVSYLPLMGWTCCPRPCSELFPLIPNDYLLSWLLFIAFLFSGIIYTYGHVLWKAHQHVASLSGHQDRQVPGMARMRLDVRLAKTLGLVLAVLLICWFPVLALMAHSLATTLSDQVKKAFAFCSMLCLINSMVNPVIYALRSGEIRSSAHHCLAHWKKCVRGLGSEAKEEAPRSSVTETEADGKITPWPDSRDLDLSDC

Row | Structure (SMILES) | [^3H]-WIN-55212-2 Binding (% of control) (human CB2; Concentration 1 μM) | [^3H]-WIN-55212-2 Binding (% of control) (human CB2; Concentration 10 μM) | TPA-induced edema of abdominal skin (C57BL6/J mice) | mechanical and thermal sensitivity in CFA arthritis (Swiss mice [1]) | early and late phase formalin-evoked nociception, combination with anandamide (mice; Swiss mice) | anti-inflammatory effect (paw weight) after formalin (mice) | formalin pain in PPARα−/− mice (mice; 50 μg i.pl.) | first- and second-phase nociception (mice; Swiss mice, i.pl. together with formalin, GW7647 0.1-50 μg, Wy-14643 50-200 μg, fenofibric acid 100-400 μg) | average half-maximal effective dose (ED50) to reduce first-phase pain (mice; intraplantar with formalin, Swiss mice, ten experiments) [µg] | mechanical and thermal pain thresholds in the non-ligated paw of neuropathic mice (Swiss mice [2]) | neuropathic hypersensitivity (mechanical and thermal pain thresholds), ligated limb (Swiss mice [2]) | mechanical sensitivity thresholds, carrageenan (Swiss mice [3]) | paw oedema, carrageenan (Swiss mice [3]) | ED50 of antinociceptive effect in the formalin model (mice; i.pl.) [µg] | phase I and II formalin pain in wild-type mice (mice; wild-type C57BL6 mice, 50 μg i.pl.) | mechanical sensitivity thresholds after repeated dosing, vs vehicle-treated mice (Swiss mice [2]; 30 mg-kg^−1 s.c. once a day for 14 consecutive days from surgery) | dose dependence of antihyperalgesic response (mechanical withdrawal, day 14) (Swiss mice [2]; s.c.)
1 | CC(C)(Sc1ccc(CCN(CCCCC2CCCCC2)C(=O)NC2CCCCC2)cc1)C(=O)O [GW7647] | 102.1 ± 4.0 % of control | 91.6 ± 4.1 % of control | attenuated TPA-induced edema | suppressed | Mimicry of this synergism | absence of anti-inflammatory effects | failed to respond | attenuated first- and second-phase nociception in a dose-dependent manner | 9.9 | did not affect | mimicked | normalized mechanical sensitivity thresholds | no effect |  |  |  | 
2 | CCCCCCCCCCCCCCCC(=O)NCCO [PEA, palmitoylethanolamide] | 106.2 ± 2.5 % of control | 98.5 ± 4.2 % of control | attenuated TPA-induced edema | suppressed | synergistically inhibit | absence of anti-inflammatory effects | absent |  |  | did not affect | reversal of neuropathic hypersensitivity | normalized mechanical sensitivity thresholds | no effect | 7.4 | attenuated these responses only in wild-type animals | significantly higher | dose-dependent

Reference: patent US20080103209A1, “Compounds And Methods For Treating Non-Inflammatory Pain Using Ppar Alpha Agonists” (The Regents of The University of California, priority 2004, published 2008)
